Where two headings read alike, the source gives them in different places.
Tests used:
[1] = tested on: R848-induced TNFα production by human peripheral blood mononuclear cells (PBMCs); test: R848 Induced TNFα in Human PBMC Assay; assay type: cell-based
Excerpt: R848 Induced TNFα in Human PBMC Assay.
This protocol is for R848-induced TNFα production by human peripheral blood mononuclear cells (PBMCs). […] The assay is used to assess cell-based potency of small molecule inhibitors of IRAK4 in the absence of serum.
The PBMCs in the interphase layer were collected and washed with PBS via centrifugation multiple times until the supernatant is clear. The purified PBMCs were re-suspended in RPMI (Roswell Park Memorial Institute) media (Sigma-Aldrich).
For the assay, a compound dilution plate containing a top concentration of 4 mM compound in DMSO was serially diluted 4-fold for 11 times. 250 nL of the compound dilution plate was spotted into a 384-well, flat bottom with lid, TC-treated, black with clear bottom, sterile, polystyrene plate (Corning Life Sciences).
10 μL of anti-TNFα antibody labeled with MSD SULFO-TAG at 50 μg/mL was added to each well and allowed to incubate overnight at 4° C.

[2] = biological target: human IRAK4 FL (Full Length) (Homo sapiens (Human), UniProt Q9NWZ3); test: IRAK4 Enzymatic DELFIA Assay, Protocol A; assay type: biochemical; conditions: human IRAK4 FL, 0.6 mM ATP (KM); read-out: IRAK4 DELFIA Protocol A IC50
[3] = Homo sapiens, PBMC, 3 h, read-out: R848-induced TNFa PBMC IC50 (nM)
[4] = human PBMC, absence of serum, 3 hours, read-out: R848-induced TNFa PBMC IC50

human IRAK4 FL (Full Length), sequence (Q9NWZ3 whole entry): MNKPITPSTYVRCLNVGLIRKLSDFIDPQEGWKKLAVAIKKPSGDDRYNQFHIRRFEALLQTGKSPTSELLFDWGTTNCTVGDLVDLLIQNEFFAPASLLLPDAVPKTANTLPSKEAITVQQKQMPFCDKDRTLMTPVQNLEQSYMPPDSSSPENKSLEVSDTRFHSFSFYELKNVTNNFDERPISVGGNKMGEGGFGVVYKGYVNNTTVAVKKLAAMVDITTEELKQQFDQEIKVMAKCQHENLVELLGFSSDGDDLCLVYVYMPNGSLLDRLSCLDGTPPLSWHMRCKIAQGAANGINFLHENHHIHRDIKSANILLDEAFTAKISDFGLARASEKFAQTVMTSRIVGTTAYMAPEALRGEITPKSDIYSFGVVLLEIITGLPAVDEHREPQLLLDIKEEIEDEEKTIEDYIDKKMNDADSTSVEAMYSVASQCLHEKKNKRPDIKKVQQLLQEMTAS

Row | SMILES | IC50 [1, 3] [nM] | IC50 [2] [µM] | IC50 [1, 4] [nM]
1 | COc1cc2c(OC[C@H]3NC(=O)C(F)[C@H]3C)ccc(F)c2cc1C(N)=O (stereo in doubt) [Example 220, 8-fluoro-5-{[(2S,3S,4S)-4-fluoro-3-methyl-5-oxopyrrolidin-2-yl]methoxy}-3-methoxynaphthalene-2-carboxamide] | 14 | 0.0009 | –
2 | COc1cc2c(OC[C@H]3NC(=O)[C@H]4C3[C@H]4F)nccc2cc1C(N)=O (stereo in doubt) [Example 334, 1-(((1R,2S,5R,6R)-6-fluoro-4-oxo-3-azabicyclo[3.1.0]hexan-2-yl)methoxy)-7-methoxyisoquinoline-6-carboxamide] | 1770 | 0.0042 | –
3 | CC(C)Oc1cc2c(OC[C@@H]3CCC(=O)N3)nccc2cc1C#N [Example 03, 1-{[(2S)-5-oxopyrrolidin-2-yl]methoxy}-7-(propan-2-yloxy)isoquinoline-6-carbonitrile] | 2740 | 0.575 | –
4 | CC(C)Oc1cc2c(OC[C@@H]3COC(=O)N3)nccc2cc1C(N)=O [Example 04, 1-{[(4R)-2-oxo-1,3-oxazolidin-4-yl]methoxy}-7-(propan-2-yloxy)isoquinoline-6-carboxamide] | 1800 | 0.0066 | –
5 | CC(C)Oc1cc2c(OC[C@@H]3CCCC(=O)N3)nccc2cc1C(N)=O [Example 06, 1-{[(2S)-6-oxopiperidin-2-yl]methoxy}-7-(propan-2-yloxy)isoquinoline-6-carboxamide] | 472 | 0.051 | –
6 | CC(C)Oc1cc2c(OC[C@@H]3CC(C)(C)C(=O)N3)nccc2cc1C(N)=O [Example 110, 1-{[(2S)-4,4-dimethyl-5-oxopyrrolidin-2-yl]methoxy}-7-(propan-2-yloxy)isoquinoline-6-carboxamide] | 1170 | 0.418 | –
7 | CC(C)Oc1cc2c(OC[C@@H]3CC(F)C(=O)N3)nccc2cc1C(N)=O (stereo partly drawn) [Example 112, 1-{[(2S)-4-fluoro-5-oxopyrrolidin-2-yl]methoxy}-7-(propan-2-yloxy)isoquinoline-6-carboxamide] | 50 | 0.001 | –
8 | CC(C)Oc1cc2c(OC[C@@H]3CCC(=O)N3)cccc2cc1C(N)=O [Example 114, 5-{[(2S)-5-oxopyrrolidin-2-yl]methoxy}-3-(propan-2-yloxy)naphthalene-2-carboxamide] | 33 | 0.0007 | –
9 | CC(C)Oc1cc2c(OC[C@@H]3C[C@@H](C)C(=O)N3)nccc2cc1C(N)=O [Example 124, 1-{[(2S,4R)-4-methyl-5-oxopyrrolidin-2-yl]methoxy}-7-(propan-2-yloxy)isoquinoline-6-carboxamide] | 175 | 0.0078 | –
10 | CC(C)Oc1cc2c(OC[C@@H]3C[C@H](C)C(=O)N3)nccc2cc1C(N)=O [Example 125, 1-{[(2S,4S)-4-methyl-5-oxopyrrolidin-2-yl]methoxy}-7-(propan-2-yloxy)isoquinoline-6-carboxamide] | 685 | 0.04 | –
11 | COCC1C[C@@H](COc2nccc3cc(C(N)=O)c(OC(C)C)cc23)NC1=O (stereo partly drawn) [Example 127, 1-{[(2S)-4-(methoxymethyl)-5-oxopyrrolidin-2-yl]methoxy}-7-(propan-2-yloxy)isoquinoline-6-carboxamide] | 682 | 0.065 | –
12 | CC(C)Oc1cc2c(OC[C@@H]3CC(F)(F)C(=O)N3)nccc2cc1C(N)=O [Example 128, 1-{[(2S)-4,4-difluoro-5-oxopyrrolidin-2-yl]methoxy}-7-(propan-2-yloxy)isoquinoline-6-carboxamide] | 27 | 0.0003 | –
13 | CC[C@]1(F)C[C@@H](COc2nccc3cc(C(N)=O)c(OC(C)C)cc23)NC1=O [Example 131, 1-{[(2S,4S)-4-ethyl-4-fluoro-5-oxopyrrolidin-2-yl]methoxy}-7-(propan-2-yloxy)isoquinoline-6-carboxamide] | 29 | 0.0006 | –
14 | CC[C@@]1(F)C[C@@H](COc2nccc3cc(C(N)=O)c(OC(C)C)cc23)NC1=O [Example 132, 1-{[(2S,4R)-4-ethyl-4-fluoro-5-oxopyrrolidin-2-yl]methoxy}-7-(propan-2-yloxy)isoquinoline-6-carboxamide] | 1180 | 0.188 | –
15 | CC(C)Oc1cc2c(OC[C@@H]3C[C@](C)(F)C(=O)N3)nccc2cc1C(N)=O [Example 134, 1-{[(2S,4S)-4-fluoro-4-methyl-5-oxopyrrolidin-2-yl]methoxy}-7-(propan-2-yloxy)isoquinoline-6-carboxamide] | 36 | 0.001 | –
16 | CC[C@H]1C[C@@H](COc2nccc3cc(C(N)=O)c(OC(C)C)cc23)NC1=O [Example 135, 1-{[(2S,4S)-4-ethyl-5-oxopyrrolidin-2-yl]methoxy}-7-(propan-2-yloxy)isoquinoline-6-carboxamide] | 32 | 0.0012 | –
17 | CC[C@@H]1C[C@@H](COc2nccc3cc(C(N)=O)c(OC(C)C)cc23)NC1=O [Example 136, 1-{[(2S,4R)-4-ethyl-5-oxopyrrolidin-2-yl]methoxy}-7-(propan-2-yloxy)isoquinoline-6-carboxamide] | 184 | 0.0078 | –
18 | CC(C)Oc1cc2c(OC[C@H]3NC(=O)C[C@@H]3C)nccc2cc1C(N)=O [Example 141, 1-{[(2S,3S)-3-methyl-5-oxopyrrolidin-2-yl]methoxy}-7-(propan-2-yloxy)isoquinoline-6-carboxamide] | 294 | 0.07 | –
19 | CC(C)Oc1cc2c(OC[C@@H]3C[C@@H](F)C(=O)N3)nccc2cc1C(N)=O [Example 144, 1-{[(2S,4R)-4-fluoro-5-oxopyrrolidin-2-yl]methoxy}-7-(propan-2-yloxy)isoquinoline-6-carboxamide] | 141 | 0.0014 | –
20 | CC(C)Oc1cc2c(OC[C@@H]3C[C@H](F)C(=O)N3)nccc2cc1C(N)=O [Example 145, 1-{[(2S,4S)-4-fluoro-5-oxopyrrolidin-2-yl]methoxy}-7-(propan-2-yloxy)isoquinoline-6-carboxamide] | 41 | 0.0004 | –
21 | COc1cc2c(OC[C@@H]3CC(F)(F)C(=O)N3)nccc2cc1C(N)=O [Example 146, 1-{[(2S)-4,4-difluoro-5-oxopyrrolidin-2-yl]methoxy}-7-methoxyisoquinoline-6-carboxamide] | 15 | 0.0002 | –
22 | [2H]C([2H])([2H])C([2H])([2H])[C@@H]1[C@H](F)C(=O)N[C@@H]1COc1nccc2cc(C(N)=O)c(OC)cc12 [Example 344, 1-{[(2S,3S,4S)-3-(pentadeutero)ethyl-4-fluoro-5-oxopyrrolidin-2-yl]methoxy}-7-methoxyisoquinoline-6-carboxamide] | – | – | 0.5
23 | CC[C@@H]1[C@@H](COc2nccc3cc(C(N)=O)c(OC)cc23)NC(=O)[C@@H]1F [Example 346, 1-{[(2S,3R,4R)-3-ethyl-4-fluoro-5-oxopyrrolidin-2-yl]methoxy}-7-methoxyisoquinoline-6-carboxamide] | – | – | 150
24 | [2H][C@]1(CC)[C@@H](COc2nccc3cc(C(N)=O)c(OC)cc23)NC(=O)[C@@]1([2H])F [Example 374, 1-{[(2S,3S,4S)-3-ethyl-4-fluoro-5-oxo(3,4-bisdeutero)pyrrolidin-2-yl]methoxy}-7-methoxyisoquinoline-6-carboxamide] | – | – | 1.2

Source: patent US10329302B2, “Bicyclic-fused heteroaryl or aryl compounds” (Pfizer Inc., priority 2014, dated 2019)
